Measurements from patent publication US20250283037A1, “METHODS FOR STIMULATING AND TRANSDUCING T CELLS” (Juno Therapeutics GmbH, priority 2021, published 2025).

What was measured:
CD4+ and CD8+ T cells [1] = assay: Intracellular cytokines after PMA/Ionomycin and Golgi inhibitor; type: cell-based, human; conditions: PMA/Ionomycin stimulation; engineered CD8+ and CD4+ T cells
Method: (§1) CD4+ and CD8+ T cells were isolated by immunoaffinity-based enrichment from leukapheresis samples from human donor subjects. At day 1, isolated CD4+ and CD8+ T cells were mixed 1:1 and stimulated with an anti-CD3/anti-CD28 oligomeric stimulatory reagent generated as described in Example 1 in serum-free media supplemented with recombinant IL-2 (100 IU/mL), recombinant IL-7 (600 IU/mL), and recombinant IL-15 (100 IU/mL) with or without 1 μM of 2-(3-hydroxyphenyl)-9-(2-isopropylphenyl)-8-oxo-8,9-dihydro-7H-purine-6-carboxamide (Compound 63). The T cells cultured with our without Compound 63 were incubated overnight (approximately 24 hr) at 37° C., and were then transduced in serum-free culture media with our without Compound 63 ([…]) with a lentiviral vector encoding an anti-CD19 CAR. The CAR contained an scFv antigen-binding domain specific for CD19 (derived from FMC63), a CD28 transmembrane region, a 4-1BB costimulatory signaling region, and a CD3-zeta derived intracellular signaling domain. Following transduction, the cells were incubated in serum free media without recombinant cytokines (basal media) and with or without Compound 63 (1 mM) and allowed to incubate at about 37.0° C. in an incubator for up to 96 hours after initiation of the stimulation with the anti-CD3/anti-CD28 oligomeric stimulatory reagent (until day 5 of the process). […]

mTOR = assay: Intracellular S6 phosphorylation in engineered T cells; type: cell-based, human; conditions: 1 μM (also printed 1 mM) during production; live CD8+ T cells
Method: CD4+ and CD8+ T cells were isolated by immunoaffinity-based enrichment from leukapheresis samples from human donor subjects. […] The T cells cultured with our without Compound 63 were incubated overnight (approximately 24 hr) at 37° C., and were then transduced in serum-free culture media with our without Compound 63 ([…]) with a lentiviral vector encoding an anti-CD19 CAR. […] Following transduction, the cells were incubated in serum free media without recombinant cytokines (basal media) and with or without Compound 63 (1 mM) and allowed to incubate at about 37.0° C. in an incubator for up to 96 hours after initiation of the stimulation with the anti-CD3/anti-CD28 oligomeric stimulatory reagent (until day 5 of the process). […] Following incubation CD4+ and CD8+ T cells from each donor were harvested, formulated, and cryofrozen. The cryofrozen engineered CD4+ and CD8+ T cells were thawed, and T cells were assessed for intracellular S6 phosphorylation, a ribosomal protein and marker of mTOR inhibition, and co-stained for surface expression of CD4 or CD8 and for CCR7 and CD45RA as markers of memory subsets. pS6 expression in live CD8+ T cells by memory subsets was shown by the expression of CCR7 and CD45RA as shown in FIG. 16A.

[2] = test system: CD8+ T cells and CD4+ T cells; assay: CD27/CCR7 phenotypic subset profile by flow cytometry; type: cell-based, human
Method: as §1

anti-CD19 CAR T cells = assay: Long-term stimulation with anti-idiotype antibody beads, expansion and survival; type: cell-based, human; conditions: 12 days, anti-ID antibody beads
Method: as §1, with “domain.” for “domain. Following transduction, the cells were incubated in serum free media without recombinant cytokines (basal media) and with or without Compound 63 (1 mM) and allowed to incubate at about 37.0° C. in an incubator for up to 96 hours after initiation of the stimulation with the anti-CD3/anti-CD28 oligomeric stimulatory reagent (until day 5 of the process).”
To further assess the functional activity of the cells, the generated T cell compositions were stimulated long-term over 12 days with beads conjugated with an anti-idiotype (ID) antibody against the anti-CD19 CAR, and expansion and survival of the cells were monitored (FIG. 17F, left panel) and total expansion metric calculated by area under the growth curve (FIG. 17F, right panel, AUC).

CD4+ and CD8+ T cells [3] = assay: Viability and live cell count of engineered T cell composition; type: cell-based, human; conditions: with vs without compound during production
CAR-T cells = assay: Intracellular caspase expression in thawed CAR-T cells; type: cell-based, human; conditions: vs cells not incubated with compound
Method: as §1

[4] = target: T1, mutein streptavidin designated Strep-tactin® (e.g. containing the sequence set forth in SEQ ID NO: 4) (Streptomyces avidinii, UniProt P22629, E68V/S69T/V71R); conditions: general statement in the description, no experiment described; read-out: binding affinity KD for Strep-tactin®; cited from earlier work
T1 construct: N-terminal methionine in place of Ala13 (N)
T1 sequence (P22629 other isoform, or with tags, fused parts or gaps E68V/S69T/V71R): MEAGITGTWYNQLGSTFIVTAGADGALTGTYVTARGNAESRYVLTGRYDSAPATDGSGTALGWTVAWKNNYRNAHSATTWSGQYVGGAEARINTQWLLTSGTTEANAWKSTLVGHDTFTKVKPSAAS

| Compound | level of intracellular cytokines IL2, IFNg, or TNF (CD4+ and CD8+ T cells [1]) | pS6 mean fluorescence intensity of memory T cell subsets (Temra, Tem, Tcm) (mTOR) | phenotypic subset profile by CD27 and/or CCR7 expression [2] | function (expansion, AUC) following long-term CAR-specific stimulation (anti-CD19 CAR T cells) | percentage of viable cells over time (CD4+ and CD8+ T cells [3]) | total number of viable cells over time (CD4+ and CD8+ T cells [3]) | intracellular caspase expression (CAR-T cells) | Kd [4] |
| --- | --- | --- | --- | --- | --- | --- | --- | --- |
| CC(C)c1ccccc1-n1c(=O)[nH]c2c(C(N)=O)nc(-c3cccc(O)c3)nc21 [Compound 63, 2-(3-hydroxyphenyl)-9-(2-isopropylphenyl)-8-oxo-8,9-dihydro-7H-purine-6-carboxamide] | substantially improved | decreased | did not substantially alter | improved function | no significant effect | no significant effect | less | – |
| WSHPQFEK [Strep-tag® II] | – | – | – | – | – | – | – | ~1000 nM |
